Experimental data: patent US4654348A, “Pyrazolo[4,3-d]pyrimidine derivative, process for its production, antihyperlipidemic agent containing it, its intermediate, and process for the production of the intermediate” (Nissan Chemical Industries Ltd., priority 1984, dated 1987)

Legend:
serum lipid = conditions: Science, 193, 903 (1976); J. Lipid Res., 12, 596 (1971); cited from earlier work
[1] = in words; cited from earlier work
animals = conditions: animal experiments; Svoboda and Azarnoff, Cancer Res., 39, 3419 (1979); cited from earlier work
[2] = system: emulsion-induced hyperlipidemic rats; assay: Test 1: antihyperlipidemic activity in emulsion-induced hyperlipidemic rats (serum Chol, HDL-Chol, liver weight); type: in vivo, male S.D. rats; conditions: 3 days, vs control; for Degree of hepatomegaly (change rate of the liver weight): liver weight per 100 g body weight, 300 mg/kg/day
Procedure: The antihyperlipidemic activity in emulsion-induced hyperlipidemic rats:
Male S.D. rats weighing 80-90 g (4 weeks old) were used. They were divided into groups of 5 to 6 rats each. The test compounds suspended in 0.5% CMC-Na(carboxymethyl cellulose sodium salt) were given to the rats in a daily dose of 4 ml/kg (i.e. 300 mg/kg of the test compounds) via stomach tube every 10:00 a.m. After 30 min., lipids emulsion having the following composition was orally given to the rats in an amount of 2.5 ml per rat.
Cholic acid sodium salt 10.0 g
During the experimental period of 3 days, the rats were fed on a standard commercial diet and water ad libitum. […] The total cholesterol and HDL cholesterol were measured.
The weight of the liver was measured. To the control group, only the aqueous CMC-Na solution and the lipids emulsion were given.
The fractionation of lipoproteins was conducted by a dextran sulfate-MgCl2 precipitation method.
Cholesterol in serum was measured by means of a cholesterol measuring kit (Cholesterol C-Test Wako, manufactured by Wako Junyaku Co., Ltd.), and cholesterol in HDL was measured by means of NC Hi-Set, manufactured by Nippon Chemiphar Co., Ltd.
Further, the reduction rate of Chol was calculated by the following equation. [formula] where A is the amount of serum Chol (mg/dl) of the control group, and B is the amount of serum Chol (mg/dl) of the group to which the therapeutic agent was administered.
Likewise, the increase rate of HDL-Chol was calculated by the following equation. [formula] where C is the amount of serum HDL-Chol (mg/dl) of the control group, and D is the amount of serum HDL-Chol (mg/dl) of the group to which the therapeutic agent was administered.
The degree of hepatomegaly (i.e. the change rate of the liver weight) was calculated by the following equation. [formula] where E is the liver weight (g) per 100 g of the body weight of the control group, and F is the liver weight (g) per 100 g of the body weight of the group to which the therapeutic agent was administered.

male ddY mice = assay: Test 2: Acute toxicity (mortality after seven days); type: in vivo; conditions: 8000 mg/kg p.o., 10080 min
Procedure: The test compounds suspended in 0.5% CMC-Na were administered p.o. to male ddY mice. The acute toxicity was determined based on the mortality after seven days. In respect of the compounds of Examples 1, 9, 10 and 11 of the present invention, the mortality was 0% even at a dose of as high as 8000 mg/kg by oral administration.

In the case of `Nc1ncnc2[nH]ncc12` [1H-pyrazolo[3,4-d]pyrimidine-4-amine], the serum lipid reduction (serum lipid) is given as “function to reduce serum lipid”.

In the case of `CCOC(=O)C(C)(C)Oc1ccc(Cl)cc1` [Clofibrate, reference compound], the “subsidiary ill effects reported” value [1] is listed as “myalgia or hepatic insufficiency, and they are likely to lead to gallstone formation”, the hepatic carcinoma (animals) is listed as “brings about hepatic carcinoma on animal experiments” and the change in vivo at 300 mg/kg ([2]; Rattus norvegicus, po, 72 h, 300 mg/kg/day via stomach tube, read-out: Increase rate of serum HDL-Chol) is listed as 12%. The inhibition in vivo at 300 mg/kg ([2]; Rattus norvegicus, po, 72 h, 300 mg/kg/day via stomach tube, read-out: Reduction rate of serum Chol.) was 44% and the “Degree of hepatomegaly (change rate of the liver weight)” value [2] was “+22%”.

With `CC/C=C\C/C=C\C/C=C\CCCCCCCCOc1c2ncnc(SCC(=O)OCC)c2nn1C` [Example 11, 2-Methyl-3-linolenyloxy-7-ethoxycarbonylmethylthio-pyrazolo[4,3-d]pyrimidine] the mortality (male ddY mice) was 0%, the “Increase rate of serum HDL-Chol” value ([2]; 300 mg/kg/day via stomach tube) was 26% and the “Reduction rate of serum Chol.” value ([2]; 300 mg/kg/day via stomach tube) was 83%. For the same molecule, the “Degree of hepatomegaly (change rate of the liver weight)” value [2] was “+20%”.
